Experimental findings from patent US20200140444A1, “INHIBITORS OF MUTANT ISOCITRATE DEHYDROGENASES AND COMPOSITIONS AND METHODS THEREOF” (IsoCure Biosciences Inc., priority 2017, published 2020) are described below.

Test [1] concerns the target IDH1 (R132H) (Homo sapiens, UniProt O75874, R132H). As to the kind of experiment: IDH enzyme assay, NADPH production or depletion measured by diaphorase/resazurin coupled detection. Type of test: biochemical. The conditions noted are these: read-out: Compound IC50 (M) IDH1 (R132H). As for the experimental part: (§1) Compounds were tested against 2 enzymes.
(§2) The production or depletion of NADPH by IDH enzymes was measured by diaphorase/resazurin coupled detection.

Test [2] concerns the target IDH1 (R132C) (Homo sapiens, UniProt O75874, R132C). Described as above. The note with it: read-out: Compound IC50 (M) IDH1 (R132C). Type of test: biochemical. As for the experimental part:
as §1, §2

Each structure is given as a SMILES string.

Sequence of IDH1 (R132H) (O75874 whole entry R132H): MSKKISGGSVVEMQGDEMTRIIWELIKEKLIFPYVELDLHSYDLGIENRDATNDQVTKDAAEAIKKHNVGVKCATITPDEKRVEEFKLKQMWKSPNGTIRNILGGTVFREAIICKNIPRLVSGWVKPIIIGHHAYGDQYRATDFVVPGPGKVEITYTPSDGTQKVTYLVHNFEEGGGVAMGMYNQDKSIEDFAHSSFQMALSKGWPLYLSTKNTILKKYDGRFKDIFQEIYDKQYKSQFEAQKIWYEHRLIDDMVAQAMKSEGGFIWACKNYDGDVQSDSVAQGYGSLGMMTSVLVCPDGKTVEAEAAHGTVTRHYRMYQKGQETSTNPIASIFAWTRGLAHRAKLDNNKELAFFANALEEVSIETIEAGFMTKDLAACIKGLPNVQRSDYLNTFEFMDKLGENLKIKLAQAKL
Sequence of IDH1 (R132C) (O75874 whole entry R132C): as the sequence (O75874 whole entry R132H) above, with H132C counted along it

Regarding `C[C@H](O)c1cccc(NC(=O)c2nc(Cc3ccccc3)n3c2CN(C(=O)c2ccc[nH]2)CC3)c1` [Compound 5-2, (S)-3-benzyl-N-(3-(1-hydroxyethyl)phenyl)-7-(1H-pyrrole-2-carbonyl)-5,6,7,8-tetrahydroimidazo[1,5-a]pyrazine-1-carboxamide], the IC50 in test [1] was determined as 1.64e-06 M.

`Cc1cccc(NC(=O)c2nc(Cc3ccccc3)n3c2CN(C(=O)c2ccc[nH]2)CC3)c1` [Compound 5-1, 3-benzyl-7-(1H-pyrrole-2-carbonyl)-N-(m-tolyl)-5,6,7,8-tetrahydroimidazo[1,5-a]pyrazine-1-carboxamide]: the IC50 came out at 3.1e-06 M in test [2] and 5.36e-07 M in test [1].

By IC50 is commonly meant the point on the concentration scale where inhibition reaches its midpoint.
